Measurements taken from ChEMBL document CHEMBL1201862, “PubChem BioAssay data set” (2004).
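Step 1: Grow cells in 96-well plates. Step 2: Expose to compound for 48 hours at 5 concentrations. Step 3: Interpolate endpoints linearly; if unreached, use highest concentration. The concentration for 50% growth inhibition is given as GI50.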 Calls of active or inactive are those of the source. No stated cut-off is given here; in the data, active = GI50 up to about 1.1 µM and inactive = higher.

How the values were obtained:
Experiment in all cases: inhibition of tumour cell growth, NCI panel, 48 h
[1] = tested on: NCI-H522
[2] = tested on: NCI/ADR-RES
[3] = tested on: HT-29
[4] = tested on: HL-60
[5] = tested on: SF-268
[6] = tested on: HOP-92
[7] = tested on: SK-OV-3
[8] = tested on: K562
[9] = tested on: SW-620
[10] = tested on: SK-MEL-5
[11] = tested on: RXF 393
[12] = tested on: NCI-H23
[13] = tested on: CCRF-CEM
[14] = tested on: OVCAR-5
[15] = tested on: UACC-257
[16] = tested on: SF-539
[17] = tested on: T47D
[18] = tested on: MOLT-4
[19] = tested on: ACHN
[20] = tested on: UACC-62
[21] = tested on: PC-3
[22] = tested on: SK-MEL-2
[23] = tested on: MDA-MB-231
[24] = tested on: Hs-578T
[25] = tested on: A549
[26] = tested on: EKVX
[27] = tested on: 786-0
[28] = tested on: TK-10
[29] = tested on: MCF7
[30] = tested on: KM12
[31] = tested on: OVCAR-3
[32] = tested on: BT-549
[33] = tested on: IGROV-1
[34] = tested on: SN12C
[35] = tested on: Malme-3M
[36] = tested on: COLO 205
[37] = tested on: HCT-116
[38] = tested on: U-251
[39] = tested on: HCT-15
[40] = tested on: UO-31
[41] = tested on: MDA-N
[42] = tested on: SF-295
[43] = tested on: SR
[44] = tested on: M14
[45] = tested on: NCI-H460
[46] = tested on: A498
[47] = tested on: MDA-MB-435
[48] = tested on: SNB-75
[49] = tested on: CAKI-1
[50] = tested on: DU-145
[51] = tested on: SNB-19
[52] = tested on: LOX IMVI
[53] = tested on: RPMI-8226
[54] = tested on: HOP-62
[55] = tested on: SK-MEL-28
[56] = tested on: OVCAR-8

SMILES: CCOC(=O)CC[C@H](NC(=O)c1ccc(CNc2nc3cc(C(F)(F)F)ccc3nc2C(=O)OCC)cc1)C(=O)OCC
- GI50 [1]: 15.7 µM (inactive)
- GI50 [2]: 26.5 µM (inactive)
- GI50 [3]: > 100 µM (inactive)
- GI50 [4]: > 100 µM (inactive)
- GI50 [5]: 12.4 µM (inactive)
- GI50 [6]: 13 µM (inactive)
- GI50 [7]: 31.4 µM (inactive)
- GI50 [8]: 70.3 µM (inactive)
- GI50 [9]: > 61.2 µM (inactive)
- GI50 [10]: 27.9 µM (inactive)
- GI50 [11]: 27.7 µM (inactive)
- GI50 [12]: 26.1 µM (inactive)
- GI50 [13]: > 100 µM (inactive)
- GI50 [14]: 34.7 µM (inactive)
- GI50 [15]: 42.8 µM (inactive)
- GI50 [16]: 4.59 µM (inactive)
- GI50 [17]: 18.1 µM (inactive)
- GI50 [18]: > 100 µM (inactive)
- GI50 [19]: 33.8 µM (inactive)
- GI50 [20]: 16.1 µM (inactive)
- GI50 [21]: 30.3 µM (inactive)
- GI50 [22]: > 48.2 µM (inactive)
- GI50 [23]: 13.3 µM (inactive)
- GI50 [24]: 7.16 µM (inactive)
- GI50 [25]: 34.7 µM (inactive)
- GI50 [26]: 17.3 µM (inactive)
- GI50 [27]: 7.19 µM (inactive)
- GI50 [28]: 15.4 µM (inactive)
- GI50 [29]: 19 µM (inactive)
- GI50 [30]: 52.2 µM (inactive)
- GI50 [31]: > 38.8 µM (inactive)
- GI50 [32]: 18.1 µM (inactive)
- GI50 [33]: 21 µM (inactive)
- GI50 [34]: > 89.9 µM (inactive)
- GI50 [35]: 18.8 µM (inactive)
- GI50 [36]: > 100 µM (inactive)
- GI50 [37]: > 56.1 µM (inactive)
- GI50 [38]: 5.87 µM (inactive)
- GI50 [39]: 76.2 µM
- GI50 [40]: 25.2 µM (inactive)
- GI50 [41]: > 100 µM (inactive)
- GI50 [42]: 8.34 µM (inactive)
- GI50 [43]: > 100 µM (inactive)
- GI50 [44]: > 43.7 µM (inactive)
- GI50 [45]: 15.5 µM (inactive)
- GI50 [46]: > 100 µM (inactive)
- GI50 [47]: > 73.6 µM (inactive)
- GI50 [48]: 12.8 µM (inactive)
- GI50 [49]: 14.3 µM (inactive)
- GI50 [50]: > 81.8 µM (inactive)
- GI50 [51]: 9.14 µM (inactive)
- GI50 [52]: > 100 µM (inactive)
- GI50 [53]: 5.58 µM (inactive)
- GI50 [54]: 9.25 µM (inactive)
- GI50 [55]: > 69.8 µM (inactive)
- GI50 [56]: 9.42 µM (inactive)
